In brackets after ≈: the same amount, converted by molar mass. Like-named read-outs stand apart in the source and are kept apart here.
What was measured:
[1] = clinical use; cited from earlier work
[2] = hydrolytic stability in aqueous buffers, TLC quantification of N-trifluoroacetyladriamycin; assay type: physicochemical; details: for degraded at 24 h: aqueous buffer, dark, read-out: Percent hydrolyzed; for resistance to hydrolysis: aqueous solutions
Text: The results were as follows:

[3] = cytotoxicity or anti-tumor activity (general statement); details: for cytotoxicity or anti-tumor activity relative to adriamycin: vs adriamycin; for cytotoxicity or anti-tumor activity relative to N-trifluoroacetyladriamycin-14-valerate: vs valerate
Experimental: (§1) The toxicity and therapeutic effectiveness of the new compounds and active agents of the present invention are shown by in vitro assays and by in vivo evaluations in mice. The in vitro assays measure the growth inhibiting activity of the materials against the CCRF-CEM cell line in culture. The cell line was derived from the peripheral blood of a child with lymphoblastic leukemia as described by Foley et al., Cancer, Volume 18, page 522 et seq. (1965), and the assays were carried out by the procedure of Foley and Lazarus, Biochem. Pharmacol., Volume 16, pages 659 et seq. (1967), the results being reported in terms of the dose in micromoles per liter required to inhibit growth of the cultures by 50% relative to control cultures to which no drug had been added (ID50). The in vivo evaluations were made by preparing a 0.2 to 0.7% by weight solution of the active agent in a formulation consisting of 10% by volume of each polyethoxylated castor oil and ethanol in saline and injecting the dosage intraperitoneally. The evaluations were made of the antitumor activity against the murine P388 and murine L1210 leukemias in BDF1 male mice according to standard National Cancer Institute protocols as set forth by Geran et al., Cancer Chemotherap. Rep., Part 3, Volume 3, pages 1 et seq. (1972) , except that a qd 1-4 schedule was used in place of qd 1-9 in order to conserve materials.

solubility in water = details: for solubility: phosphate buffer, pH 7.4, aqueous buffer; for solubility in water relative to N-trifluoroacetyladriamycin-14-valerate: physiological pH in the range pH 7.2-7.5
murine P388 leukemia = assay: in vivo antitumor activity against murine P388 leukemia, ip qd 1-4; parameters: species or system mouse (BDF1 male mice)
Experimental: as §1
(§2) Optimal dosage was determined by testing doses which were at several multiples of 10 milligrams/kilogram of body weight. Some effectiveness can be observed at dosages ranging from 30 to 70 milligrams/kilogram of body weight, depending upon the particular compound employed.
The following table summarizes the in vivo antitumor activity of the same compounds as those in Table I, evaluated against murine P388 leukemia as described above. All compounds were administered intraperitoneally, adriamycin in clinical formulation (1 part adriamycin plus 5 parts lactose, in 0.9% saline), the other compounds in 10% Emulphor EL-620, 10% ethanol, 80% isotonic saline.

mice = assay: toxicity to mice; assay type: in vivo, mouse
Experimental: as §1

CCRF-CEM cells = assay: growth inhibition of CCRF-CEM cell line in culture; assay type: cell-based; details: Homo sapiens, read-out: ID50 (dose required to inhibit growth of the cultures by 50% relative to control)
Text: The in vitro assays measure the growth inhibiting activity of the materials against the CCRF-CEM cell line in culture. […] The in vivo evaluations were made by preparing a 0.2 to 0.7% by weight solution of the active agent in a formulation consisting of 10% by volume of each polyethoxylated castor oil and ethanol in saline and injecting the dosage intraperitoneally. The evaluations were made of the antitumor activity against the murine P388 and murine L1210 leukemias in BDF1 male mice according to standard National Cancer Institute protocols as set forth by Geran et al., Cancer Chemotherap. Rep., Part 3, Volume 3, pages 1 et seq.

murine L1210 leukemia = assay: in vivo antitumor activity against L1210 leukemia, ip days 1-4; parameters: species or system mouse (BDF1 male mice)
Experimental: as §1, §2
All compounds were administered intraperitoneally; in tests (1) and (2), the compounds were in 10% Emulphor EL-620, 10% ethanol, and 80% isotonic saline. In test (3) the compound was in aqueous buffer containing monobasic potassium phosphate and sodium hydroxide (0.05 M), pH 7.40: […]

[4] = steroid administration to patients with vehicle-associated chest pain; cited from earlier work
[5] = each dose 30.0 mg/kg ip, 10% Emulphor EL-620, 10% ethanol, 80% saline
[6] = each dose 40.0 mg/kg ip, 10% Emulphor EL-620, 10% ethanol, 80% saline
[7] = each dose 50.0 mg/kg ip, 10% Emulphor EL-620, 10% ethanol, 80% saline
[8] = each dose 60.0 mg/kg ip, 10% Emulphor EL-620, 10% ethanol, 80% saline
[9] = each dose 70.0 mg/kg ip, 10% Emulphor EL-620, 10% ethanol, 80% saline
[10] = 50.0 mg/kg/d × 4 ip, 10% Emulphor EL-620, 10% ethanol, 80% isotonic saline
[11] = 60.0 mg/kg/d × 4 ip, 10% Emulphor EL-620, 10% ethanol, 80% isotonic saline
[12] = test (3): 50.0 mg/kg/d × 4 ip, aqueous phosphate buffer (0.05 M) pH 7.40
[13] = test (3): 60.0 mg/kg/d × 4 ip, aqueous phosphate buffer (0.05 M) pH 7.40
[14] = each dose 1.0 mg/kg ip, clinical formulation (lactose, 0.9% saline)
[15] = each dose 2.0 mg/kg ip, clinical formulation (lactose, 0.9% saline)
[16] = each dose 3.0 mg/kg ip, clinical formulation (lactose, 0.9% saline)
[17] = each dose 4.0 mg/kg ip, clinical formulation (lactose, 0.9% saline)
[18] = each dose 5.0 mg/kg ip, clinical formulation (lactose, 0.9% saline)

SMILES: COc1cccc2c1C(=O)c1c(O)c3c(c(O)c1C2=O)C[C@@](O)(C(C)=O)C[C@@H]3O[C@H]1C[C@H](N)[C@H](O)[C@H](C)O1 [daunorubicin]
- toxic side-effects (dose-limiting) [1]: acute myelosuppression and cumulative dose-related cardiac toxicity

SMILES: COc1cccc2c1C(=O)c1c(O)c3c(c(O)c1C2=O)CC(O)(C(=O)COC(=O)CCCC(=O)O)CC3OC1CC(NC(=O)C(F)(F)F)C(O)C(C)O1 (centres unmarked) [N-Trifluoroacetyladriamycin-14-O-hemiglutarate]
- degraded at 24 h ([2]; pH 7.4, pH 7.40, 4° C.): 0%
- degraded at 24 h ([2]; pH 7.4, pH 7.40, 27° C.): 1%
- degraded at 24 h ([2]; pH 9, pH 9.00, 4° C.): < 0.5%
- degraded at 24 h ([2]; pH 9, pH 9.00, 27° C.): 3%
- resistance to hydrolysis [2]: excellent resistance to hydrolysis
- cytotoxicity or anti-tumor activity relative to adriamycin [3]: greater than that of adriamycin
- cytotoxicity or anti-tumor activity relative to N-trifluoroacetyladriamycin-14-valerate [3]: approximately equal to that of N-trifluoroacetyladriamycin-14-valerate
- solubility (solubility in water): 65 mg/mL (≈ 86.2 mM)
- solubility in water relative to N-trifluoroacetyladriamycin-14-valerate (solubility in water): many times greater than that of N-trifluoroacetyladriamycin-14-valerate
- % ILS (percent increase in life span relative to untreated controls) (murine P388 leukemia; [5]): 81%
- No. alive on d 30 (murine P388 leukemia; [5]): 2/7
- No. alive on d 60 (murine P388 leukemia; [5]): 0/7
- Survival, Median day of death (range) (murine P388 leukemia; [5]): 20.0 (20-35) day
- % ILS (percent increase in life span relative to untreated controls) (murine P388 leukemia; [6]): 109%
- No. alive on d 30 (murine P388 leukemia; [6]): 2/7
- No. alive on d 60 (murine P388 leukemia; [6]): 1/7
- Survival, Median day of death (range) (murine P388 leukemia; [6]): 23.0 (20-35) day
- % ILS (percent increase in life span relative to untreated controls) (murine P388 leukemia; [7]): 172%
- No. alive on d 30 (murine P388 leukemia; [7]): 3/7
- No. alive on d 60 (murine P388 leukemia; [7]): 2/7
- Survival, Median day of death (range) (murine P388 leukemia; [7]): 30.0 (20-42) day
- No. alive on d 30 (murine P388 leukemia; [8]): 5/7
- No. alive on d 60 (murine P388 leukemia; [8]): 4/7
- Survival, day of death (range only, no median) (murine P388 leukemia; [8]): 20,29 day
- No. alive on d 30 (murine P388 leukemia; [9]): 5/7
- No. alive on d 60 (murine P388 leukemia; [9]): 4/7
- Survival, day of death (range only, no median) (murine P388 leukemia; [9]): 25 to 36 days
- toxicity to mice relative to adriamycin or daunomycin (mice): significantly less toxic to mice than adriamycin or daunomycin
- IC50 (CCRF-CEM cells; CCRF-CEM cells, in vitro): 280 nM

SMILES: COc1cccc2c1C(=O)c1c(O)c3c(c(O)c1C2=O)CC(O)(C(=O)COC(=O)CCCCC(=O)O)CC3OC1CC(NC(=O)C(F)(F)F)C(O)C(C)O1 (centres unmarked) [N-Trifluoroacetyladriamycin-14-O-hemiadipate]
- degraded at 24 h ([2]; pH 7.4, pH 7.40, 4° C.): 0%
- degraded at 24 h ([2]; pH 7.4, pH 7.40, 27° C.): 0.5%
- degraded at 24 h ([2]; pH 8, pH 8.00, 4° C.): 0.3%
- degraded at 24 h ([2]; pH 8, pH 8.00, 27° C.): 1%
- degraded at 24 h ([2]; pH 9, pH 9.00, 4° C.): 0.5%
- resistance to hydrolysis [2]: excellent resistance to hydrolysis
- cytotoxicity or anti-tumor activity relative to adriamycin [3]: greater than that of adriamycin
- cytotoxicity or anti-tumor activity relative to N-trifluoroacetyladriamycin-14-valerate [3]: approximately equal to that of N-trifluoroacetyladriamycin-14-valerate
- solubility (solubility in water): 60 mg/mL (≈ 78.2 mM)
- solubility in water relative to N-trifluoroacetyladriamycin-14-valerate (solubility in water): many times greater than that of N-trifluoroacetyladriamycin-14-valerate
- % ILS (percent median increase in life span relative to untreated controls, calculated as of day 50) (murine L1210 leukemia; [10]): > 456%
- No. alive on d 50 (murine L1210 leukemia; [10]): 7/7
- % ILS (percent median increase in life span relative to untreated controls, calculated as of day 50) (murine L1210 leukemia; [11]): > 456%
- No. alive on d 50 (murine L1210 leukemia; [11]): 6/7
- prolonging the survival of mice bearing the L1210 leukemia (murine L1210 leukemia; ip): highly effective in prolonging the survival of mice bearing the L1210 leukemia
- % ILS (percent median increase in life span relative to untreated controls, calculated as of day 50) (murine L1210 leukemia; [12]): > 456%
- No. alive on d 50 (murine L1210 leukemia; [12]): 5/7
- % ILS (percent median increase in life span relative to untreated controls, calculated as of day 50) (murine L1210 leukemia; [13]): > 456%
- No. alive on d 50 (murine L1210 leukemia; [13]): 7/7
- No. alive on d 30 (murine P388 leukemia; [6]): 6/7
- No. alive on d 60 (murine P388 leukemia; [6]): 6/7
- Survival, day of death (range only, no median) (murine P388 leukemia; [6]): 25 days
- No. alive on d 30 (murine P388 leukemia; [7]): 6/7
- No. alive on d 60 (murine P388 leukemia; [7]): 5/7
- Survival, day of death (range only, no median) (murine P388 leukemia; [7]): 23,45 day
- No. alive on d 30 (murine P388 leukemia; [8]): 6/7
- No. alive on d 60 (murine P388 leukemia; [8]): 6/7
- Survival, day of death (range only, no median) (murine P388 leukemia; [8]): 24,93 day
- No. alive on d 30 (murine P388 leukemia; [9]): 7/7
- No. alive on d 60 (murine P388 leukemia; [9]): 7/7
- Survival, day of death (range only, no median) (murine P388 leukemia; [9]): 61 to 77 days
- toxicity to mice relative to adriamycin or daunomycin (mice): significantly less toxic to mice than adriamycin or daunomycin
- IC50 (CCRF-CEM cells; CCRF-CEM cells, in vitro): 310 nM

SMILES: COc1cccc2c1C(=O)c1c(O)c3c(c(O)c1C2=O)C[C@@](O)(C(=O)CO)C[C@@H]3O[C@H]1C[C@H](N)[C@H](O)[C@H](C)O1 [Adriamycin]
- toxic side-effects (dose-limiting) [1]: acute myelosuppression and cumulative dose-related cardiac toxicity
- % ILS (percent increase in life span relative to untreated controls) (murine P388 leukemia; [14]): 81%
- No. alive on d 30 (murine P388 leukemia; [14]): 0/7
- Survival, Median day of death (range) (murine P388 leukemia; [14]): 20.0 (18-27) day
- % ILS (percent increase in life span relative to untreated controls) (murine P388 leukemia; [15]): 90%
- No. alive on d 30 (murine P388 leukemia; [15]): 2/7
- No. alive on d 60 (murine P388 leukemia; [15]): 1/7
- Survival, Median day of death (range) (murine P388 leukemia; [15]): 21.0 (20-32) day
- % ILS (percent increase in life span relative to untreated controls) (murine P388 leukemia; [16]): 181%
- No. alive on d 30 (murine P388 leukemia; [16]): 4/7
- No. alive on d 60 (murine P388 leukemia; [16]): 2/7
- Survival, Median day of death (range) (murine P388 leukemia; [16]): 31.0 (23-36) day
- % ILS (percent increase in life span relative to untreated controls) (murine P388 leukemia; [17]): 63%
- No. alive on d 30 (murine P388 leukemia; [17]): 0/7
- Survival, Median day of death (range) (murine P388 leukemia; [17]): 18.0 (7-28) day
- No. alive on d 30 (murine P388 leukemia; [18]): 0/7
- Survival, Median day of death (range) (murine P388 leukemia; [18]): 9.0 (7-27) day
- % ILS (percent increase in life span relative to untreated controls) (murine P388 leukemia; ip, 5 mg/kg): -19%
- IC50 (CCRF-CEM cells; CCRF-CEM): 50 nM

SMILES: C[C@]12CCC(=O)C=C1CC[C@@H]1[C@@H]2[C@@H](O)C[C@@]2(C)[C@H]1CC[C@]2(O)C(=O)COC(=O)CCC(=O)O [hydrocortisone hemisuccinate]
- effect on chest pain symptom complex during valerate infusion [4]: eliminated the symptom complex in those cases

From patent US4299822A, “N-Trifluoroacetyladriamycin-14-O-hemiglutarate and -hemiadipate and therapeutic compositions containing same” (Sidney Farber Cancer Institute, Inc., priority 1980, dated 1981)
